Article PMC7469689, “Substituted 4,5′-Bithiazoles as Catalytic Inhibitors of Human DNA Topoisomerase IIα” (Journal of Chemical Information and Modeling, 2020)

Experiments:
bacterial DNA gyrase = target: bacterial DNA gyrase; design: method as in earlier work; conditions: previous virtual screening campaign; cited from earlier work
MCF-7 cells = test: MTS cytotoxicity assay, MCF-7; format: cell-based, human; conditions: 24 h, one concentration (200, 100 or 50 μM by solubility), vs untreated control
Description: (§1) We have determined the cytotoxicity of the compounds using the human breast cancer MCF-7 and human hepatocellular carcinoma HepG2 cancer cell lines by standard 3-(4,5-dimethylthiazol-2-yl)-5-(3-carboxymethoxyphenyl)-2-(4-sulfophenyl)-2H-tetrazolium (MTS) assay.[65] The two selected human cancer cell lines are representative and well-established systems for the cell-based evaluation of potential cancer drugs. Etoposide was again used as a positive control (PC). We performed initial screening of compounds 1–14 at one concentration.
(§2) Cytotoxic activity of studied compounds was determined in two human cancer cell lines: hepatocellular carcinoma (HepG2) and breast cancer (MCF-7) cells. Both cell lines were obtained from ATCC. […] After the exposure of cells to the tested compounds, their viability was determined using the MTS assay.
(§3) The cells were seeded at densities of 8000 and 7000 cells/well for HepG2 and MCF-7 cells, respectively, in 200 μL of complete growth medium onto 96-well microtiter plates (Nunc, Thermo Fisher Scientific, Waltham, MA) and were left overnight at 37 °C to attach. […] After 3 h incubation (37 °C, 5% CO2), the absorbance was determined at 490 nm using a spectrofluorometer Synergy MX (BioTek, Winooski, VT). […] Cell viability was calculated by comparing the optical density (OD) of the wells with exposed cells with the wells of solvent control cells, and the results are shown as percentage of cell viability ± SD. […] The EC50 values were determined utilizing nonlinear regression analysis available in GraphPad Prism 7.0 software. Statistically significant difference between control and treated groups was determined by one-way analysis of variance combined with Dunnett’s multiple comparison test.

HepG2 cells = test: MTS cytotoxicity assay, HepG2; format: cell-based, human; conditions: 24 h, one concentration (200, 100 or 50 μM by solubility), vs untreated control
Description: as §1, §2, §3

human topo IIα [1] = target: T1, human topo IIα (Homo sapiens, UniProt P11388); test: HTS relaxation assay of human topo IIα; format: biochemical
T1 construct: purchased Inspiralis (Norwich, U.K.)

human topo IIβ = target: T2, human topo IIβ (Homo sapiens, UniProt Q02880); test: Human topo IIβ-mediated kDNA decatenation assay; format: biochemical
T2 construct: purchased Inspiralis (Norwich, U.K.)
Description: We were also interested in whether compounds can act on both isoforms of the human topo II. Thus, we performed human topo IIβ decatenation assays for compounds 1 and 9. […] (see also Tables S5 and S6 for more details).
(§4) We made use of the human topo II decatenation assay kit from Inspiralis (Norwich, U.K.) to assess the ability of selected compounds to impede DNA decatenation.[89],[90] It was performed for topo IIα and topo IIβ isoforms using the protocol as described previously.[35]

human topo IIα [2] = target: T1, human topo IIα; test: Human topo IIα-mediated cleavage assay; format: biochemical; conditions: for linear DNA formation in cleavage assay (in words): four concentrations
Description: To determine whether compounds act as catalytic inhibitors, a cleavage assay was next performed for compounds 1 and 9.
We performed the assay in collaboration with Inspiralis (Norwich, U.K.).

human topo IIα [3] = target: T1, human topo IIα; test: ATPase activity (ATP hydrolysis) assay, pyruvate kinase/lactate dehydrogenase coupled; format: biochemical
human topo IIα [4] = target: T1, human topo IIα; test: Human topo IIα-mediated kDNA decatenation assay; format: biochemical
Description: as §4

[5] = design: method as in doi:10.1039/jr9480002240; conditions: first protonation on the ring nitrogen; cited from earlier work
Solubility observations = format: physicochemical; conditions: cell growth medium
[6] = 500 μM (compound 1: solubility problems, erratic readings)

T1 sequence (P11388 whole entry): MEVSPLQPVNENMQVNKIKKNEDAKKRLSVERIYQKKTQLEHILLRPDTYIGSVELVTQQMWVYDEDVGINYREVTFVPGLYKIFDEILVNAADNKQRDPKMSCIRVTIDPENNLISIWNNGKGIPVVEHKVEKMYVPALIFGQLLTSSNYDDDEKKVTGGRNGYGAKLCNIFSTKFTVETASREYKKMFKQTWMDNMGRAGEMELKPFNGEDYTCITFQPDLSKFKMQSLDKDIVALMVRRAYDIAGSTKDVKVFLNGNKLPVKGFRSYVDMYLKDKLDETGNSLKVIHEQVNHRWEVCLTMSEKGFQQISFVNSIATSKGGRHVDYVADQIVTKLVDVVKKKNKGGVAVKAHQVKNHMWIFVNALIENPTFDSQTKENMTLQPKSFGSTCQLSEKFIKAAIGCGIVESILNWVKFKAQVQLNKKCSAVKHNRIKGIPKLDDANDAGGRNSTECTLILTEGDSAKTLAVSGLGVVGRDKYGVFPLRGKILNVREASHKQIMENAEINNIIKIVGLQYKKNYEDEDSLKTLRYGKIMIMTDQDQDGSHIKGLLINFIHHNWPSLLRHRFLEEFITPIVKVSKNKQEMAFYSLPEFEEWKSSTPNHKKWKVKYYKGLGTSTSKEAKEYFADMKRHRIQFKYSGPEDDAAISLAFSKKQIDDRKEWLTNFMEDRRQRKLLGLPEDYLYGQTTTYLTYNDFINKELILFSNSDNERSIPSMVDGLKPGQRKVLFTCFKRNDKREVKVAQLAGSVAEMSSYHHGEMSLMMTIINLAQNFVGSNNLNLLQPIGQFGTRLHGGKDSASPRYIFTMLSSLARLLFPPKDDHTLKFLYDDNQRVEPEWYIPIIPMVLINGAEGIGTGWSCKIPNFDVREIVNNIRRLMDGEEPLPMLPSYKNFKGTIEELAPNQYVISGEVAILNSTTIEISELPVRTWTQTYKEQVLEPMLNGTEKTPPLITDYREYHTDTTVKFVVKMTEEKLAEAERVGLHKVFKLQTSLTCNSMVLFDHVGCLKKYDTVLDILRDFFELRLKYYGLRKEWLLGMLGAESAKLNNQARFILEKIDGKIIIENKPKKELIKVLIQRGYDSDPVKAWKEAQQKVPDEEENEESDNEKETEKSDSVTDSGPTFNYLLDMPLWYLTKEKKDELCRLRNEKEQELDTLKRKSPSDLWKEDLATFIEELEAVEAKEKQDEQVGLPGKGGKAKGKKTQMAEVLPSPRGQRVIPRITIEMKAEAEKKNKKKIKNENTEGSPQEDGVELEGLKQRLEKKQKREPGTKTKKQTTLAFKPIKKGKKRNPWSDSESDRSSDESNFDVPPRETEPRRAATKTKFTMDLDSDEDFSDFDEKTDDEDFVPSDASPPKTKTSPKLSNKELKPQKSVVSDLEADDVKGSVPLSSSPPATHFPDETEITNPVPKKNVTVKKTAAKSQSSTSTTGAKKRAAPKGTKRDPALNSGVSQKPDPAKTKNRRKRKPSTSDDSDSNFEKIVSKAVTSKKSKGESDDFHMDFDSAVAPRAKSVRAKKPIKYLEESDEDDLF
T2 sequence (Q02880 whole entry): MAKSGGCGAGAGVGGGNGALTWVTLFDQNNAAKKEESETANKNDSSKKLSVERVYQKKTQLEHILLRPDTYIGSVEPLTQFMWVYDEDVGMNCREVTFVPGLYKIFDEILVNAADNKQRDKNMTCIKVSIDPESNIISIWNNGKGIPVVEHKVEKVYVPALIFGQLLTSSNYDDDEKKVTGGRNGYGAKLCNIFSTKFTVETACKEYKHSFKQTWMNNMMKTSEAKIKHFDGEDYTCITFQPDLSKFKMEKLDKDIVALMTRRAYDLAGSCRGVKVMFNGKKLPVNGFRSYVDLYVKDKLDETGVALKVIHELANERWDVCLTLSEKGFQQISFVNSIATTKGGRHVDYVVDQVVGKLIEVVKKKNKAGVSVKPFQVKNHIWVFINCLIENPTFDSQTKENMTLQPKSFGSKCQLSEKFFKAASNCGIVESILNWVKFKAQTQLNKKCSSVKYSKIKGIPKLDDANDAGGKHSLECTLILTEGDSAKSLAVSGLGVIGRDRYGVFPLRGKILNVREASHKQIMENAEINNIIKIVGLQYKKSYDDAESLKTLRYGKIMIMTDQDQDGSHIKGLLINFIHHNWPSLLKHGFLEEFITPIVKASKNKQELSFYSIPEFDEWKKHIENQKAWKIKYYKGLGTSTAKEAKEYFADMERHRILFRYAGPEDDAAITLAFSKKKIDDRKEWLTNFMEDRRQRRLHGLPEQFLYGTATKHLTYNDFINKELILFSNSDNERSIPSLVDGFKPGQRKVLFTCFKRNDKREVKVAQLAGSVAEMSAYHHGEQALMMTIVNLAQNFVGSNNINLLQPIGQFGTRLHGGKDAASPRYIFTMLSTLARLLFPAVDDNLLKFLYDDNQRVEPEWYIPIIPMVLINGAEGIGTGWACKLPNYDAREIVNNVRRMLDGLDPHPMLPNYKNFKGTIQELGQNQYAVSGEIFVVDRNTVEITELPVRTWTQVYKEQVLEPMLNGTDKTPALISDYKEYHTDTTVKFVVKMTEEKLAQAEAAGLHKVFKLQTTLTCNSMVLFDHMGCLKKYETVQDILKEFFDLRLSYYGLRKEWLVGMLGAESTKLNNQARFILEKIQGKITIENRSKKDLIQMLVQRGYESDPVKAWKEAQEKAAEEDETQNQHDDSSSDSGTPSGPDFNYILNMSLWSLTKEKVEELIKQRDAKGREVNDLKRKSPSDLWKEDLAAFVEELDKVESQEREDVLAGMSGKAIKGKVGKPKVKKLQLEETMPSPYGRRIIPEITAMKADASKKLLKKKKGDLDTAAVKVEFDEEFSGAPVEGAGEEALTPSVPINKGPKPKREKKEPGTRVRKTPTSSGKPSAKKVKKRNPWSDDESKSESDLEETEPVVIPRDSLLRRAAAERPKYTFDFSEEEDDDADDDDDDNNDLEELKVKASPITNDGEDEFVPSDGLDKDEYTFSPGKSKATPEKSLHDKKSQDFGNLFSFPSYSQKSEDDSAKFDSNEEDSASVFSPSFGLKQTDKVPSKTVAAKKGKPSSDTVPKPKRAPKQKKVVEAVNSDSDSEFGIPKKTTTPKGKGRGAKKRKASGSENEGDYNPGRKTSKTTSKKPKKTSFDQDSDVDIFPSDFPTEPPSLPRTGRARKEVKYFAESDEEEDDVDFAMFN

CC(=O)Nc1nc(C)c(-c2csc(Nc3ccc(C(=O)O)cc3)n2)s1 [Compound 8]
IC50 (bacterial DNA gyrase): 5.5 µM
reduction of cell viability, initial cytotoxicity screening (MCF-7 cells): no or only minor effects
reduction of cell viability, initial cytotoxicity screening (HepG2 cells): no or only minor effects
IC50 (human topo IIα [1]): 120 µM

COc1cc([C@@H]2c3cc4c(cc3[C@@H](O[C@@H]3O[C@@H]5CO[C@@H](C)O[C@H]5[C@H](O)[C@H]3O)[C@H]3COC(=O)[C@H]23)OCO4)cc(OC)c1O [etoposide, reference compound]
% Decatenated Average (human topo IIβ; 3.9 μM): 100.0%
% Decatenated Assay 1 (human topo IIβ; 500 μM): 15.0%
% Linear DNA (first column) (human topo IIα [2]; 3.9 μM): 22.76%
% Linear DNA (second column) (human topo IIα [2]; 3.9 μM): 11.88%
% Linear DNA (first column) (human topo IIα [2]; 31.5 μM): 33.00%
% Linear DNA (second column) (human topo IIα [2]; 31.5 μM): 36.26%
% Linear DNA (first column) (human topo IIα [2]; 125 μM): 45.35%
% Linear DNA (second column) (human topo IIα [2]; 125 μM): 36.91%
% Linear DNA (first column) (human topo IIα [2]; 500 μM): 43.03%
% Linear DNA (second column) (human topo IIα [2]; 500 μM): 48.40%
linear DNA formation in cleavage assay (in words) (human topo IIα [2]): poison activity
Percentage ATPase activity Run 1 (human topo IIα [3]; 3.9 μM): 52.71%
Percentage ATPase activity Run 2 (human topo IIα [3]; 3.9 μM): 51.94%
Percentage ATPase activity Run 1 (human topo IIα [3]; 31.5 μM): 36.43%
Percentage ATPase activity Run 2 (human topo IIα [3]; 31.5 μM): 37.21%
Percentage ATPase activity Run 1 (human topo IIα [3]; 125 μM): 30.23%
Percentage ATPase activity Run 2 (human topo IIα [3]; 125 μM): 37.21%
Percentage ATPase activity Run 1 (human topo IIα [3]; [6]): 0%
Percentage ATPase activity Run 2 (human topo IIα [3]; [6]): 4.65%

CO[C@@H]1[C@@H](OC(N)=O)[C@@H](O)[C@H](Oc2ccc3c(O)c(NC(=O)c4ccc(O)c(CC=C(C)C)c4)c(=O)oc3c2C)OC1(C)C [novobiocin, reference compound]
Rate ATPase activity (human topo IIα [3]; 10 μM control): 0.14 µmol/min

CC(=O)Nc1nc(C)c(-c2csc(Nc3ccc(O)cc3)n2)s1 [Compound 12]
IC50 (bacterial DNA gyrase): 30 µM
IC50 (human topo IIα [1]): 193 µM

CC(=O)Nc1nc(C)c(-c2csc(Nc3ccccc3)n2)s1 [Compound 14]
IC50 (human topo IIα [1]): 357 µM

CC(=O)Nc1ccc(Nc2nc(-c3sc(NC(C)=O)nc3C)cs2)cc1 [Compound 9]
IC50 (human topo IIα [1]): 60 µM
% Linear DNA (first column) (human topo IIα [2]; 3.9 μM): 5.49%
% Linear DNA (second column) (human topo IIα [2]; 3.9 μM): 7.03%
% Linear DNA (first column) (human topo IIα [2]; 31.5 μM): 7.77%
% Linear DNA (second column) (human topo IIα [2]; 31.5 μM): 6.75%
% Linear DNA (first column) (human topo IIα [2]; 125 μM): 4.84%
% Linear DNA (second column) (human topo IIα [2]; 125 μM): 4.60%
% Linear DNA (first column) (human topo IIα [2]; 500 μM): 2.95%
% Linear DNA (second column) (human topo IIα [2]; 500 μM): 2.25%
linear DNA formation in cleavage assay (in words) (human topo IIα [2]): did not reveal a significant amount of linear DNA above the background level

COc1ccc(Nc2nc(-c3sc(NC(C)=O)nc3C)cs2)cc1 [Compound 10]
inhibition at 125 µM (human topo IIα [4]; 125 μM): 26%
inhibition at 500 µM (human topo IIα [4]; 500 μM): 64%
IC50 (human topo IIα [1]): 22.7 µM

Nc1nccs1 [2-aminothiazole]
pKa [5]: 5.4

Cc1cc(NS(=O)(=O)c2ccc(Nc3nc(-c4sc(N)nc4C)cs3)cc2)no1 [Compound 4]
IC50 (human topo IIα [1]): 30.1 µM

CCC(=O)Nc1nc(C)c(-c2csc(Nc3ccc(C(=O)O)cc3)n2)s1 [Compound 13]
IC50 (bacterial DNA gyrase): 1.1 µM
IC50 (human topo IIα [1]): 123 µM

Cc1nc(N)sc1-c1csc(Nc2ccc(C(=O)O)c(O)c2)n1 [Compound 6]
IC50 (bacterial DNA gyrase): 67 µM
reduction of cell viability, initial cytotoxicity screening (MCF-7 cells): no or only minor effects
reduction of cell viability, initial cytotoxicity screening (HepG2 cells): no or only minor effects
IC50 (human topo IIα [1]): 37.7 µM

CC(=O)Nc1nc(C)c(-c2csc(Nc3cccc(C(=O)O)c3)n2)s1 [Compound 11]
reduction of cell viability, initial cytotoxicity screening (MCF-7 cells): no or only minor effects
reduction of cell viability, initial cytotoxicity screening (HepG2 cells): no or only minor effects
IC50 (human topo IIα [1]): 134 µM

Cc1nc(N)sc1-c1csc(Nc2ccc(S(N)(=O)=O)cc2)n1 [Compound 5]
IC50 (bacterial DNA gyrase): 8.2 µM
IC50 (human topo IIα [1]): 70.1 µM

Cc1cc(O)ccc1Nc1nc(-c2sc(N)nc2C)cs1 [Compound 2]
IC50 (human topo IIα [1]): 35.8 µM

CC(=O)c1ccc(Nc2nc(-c3sc(N)nc3C)cs2)cc1 [Compound 3]
solubility in the cell growth medium (Solubility observations): low solubility
IC50 (human topo IIα [1]): 222 µM

CC(=O)Nc1nc(C)c(-c2csc(Nc3cccc(O)c3)n2)s1 [Compound 7]
IC50 (human topo IIα [1]): 33.7 µM
